Assay results published in patent US12570975B2, “Composition for diagnosis or treatment of a condition associated with increased activity of EIF4E comprising an EIF4E inhibitor” (SoVarGen Co., Ltd., priority 2019, dated 2026).

Experiments:
eIF4E = eIF4E expression in cerebral cortex, cerebellum and spinal cord after ICV injection of ASO; details: mouse, in vivo
Description: Each of panels B to D of FIG. 17 and panels E and F of FIG. 18 represents “normal mice”, whereas panel A of FIG. 17 and panels G and H of FIG. 18 represents “FMCD animal models.”
For this experiment, animal models established using pCIG-mTOR p.C1483Y-IRES-EGFP and pCIG-mTOR p.L2427P-IRES-EGFP of Example 1 were used while animal models established with pCIG-mTOR (WT)-IRES-EGFP […] served as a control. The ASOs were each intracerebroventricularly injected (ICV injection) at a dose of 100-500 μg to the brains of the mice that had been identified to undergo epileptic seizure. From day 3 after ASO injection to up to day 70, 12-hour video were recorded for seizure monitoring 2-3 times a week per mouse.
After intraventricular injection of the ASO candidates to the animal models, eIF4E expression was reduced in the cerebral cortex, the cerebellum, and the spinal cord, with the consequent reduction in seizure frequency.

[1] = tested on: FMCD and epilepsy animal models (mTOR-p.C1483Y, mTOR-p.L2427P); assay: Light & dark box test, FMCD epilepsy models; format: in vivo, mouse; details: ASO-eIF4E models compared to ASO-control models
Experimental: Behaviors were recorded and analyzed using EthoVision XT (Noldus).
(§1) Experiments were performed on the FMCD and epilepsy animal models (mTOR-p.C1483Y, mTOR-p.L2427P) of Example 7-1 and the control normal animal models (mTOR-WT). The same sheIF4E as that described in Example 2 was used. Week 2 after sheIF4E injection, the handling was performed in the animals. Week 3 after sheIF4E injection, the animals were subjected to the behavioral tests.
(§2) The epilepsy animal models were subjected to the substantially same behavioral abnormality assay as in Example 6. The results are depicted in FIGS. 28 and 29.
(§3) Briefly, ASO #77 was administered by ICV injection to the FMCD and epilepsy animal models were generated with the pCIG-mTOR mutant-IRES-EGFP of Example 1. ASO #77 was evaluated for therapeutic potential for neuropsychiatric disorder accompanying the FMCD epilepsy animal models in the substantially same manner as in Example 6.

[2] = tested on: FMCD and epilepsy animal models (mTOR-p.C1483Y, mTOR-p.L2427P); assay: Social avoidance test, FMCD epilepsy models; format: in vivo, mouse; details: ASO-eIF4E models compared to ASO-control models
Experimental: The arena was a black box (400×400 mm).
as §1, §2, §3

C57BL/6J mice [3] = details: in vivo
male mice = assay: Repeated dose toxicity assay by subcutaneous injection; format: in vivo, mouse; details: subcutaneous 100 mg/kg, seven times within a month
Experimental: ASO #16, #21, #27, #35, #75, #77, and #89 selected in Example 4 were each assayed for repeated dose toxicity by subcutaneous injection.
Repeated dose toxicity assay of the […] was conducted by Biotoxtech Co., Ltd. In repeated dose toxicity assay, each ASO sequence was subcutaneously injected at a dose of 100 mg/kg to groups of four male mice seven times in total within a month (days 1, 3, 5, 7, 14, 21, and 28). Two days after the last injection, histopathologic observations were made.

C57BL/6J mice [4] = details: mouse, in vivo
eIF4E mRNA = assay: ASO screening by real-time PCR (eIF4E mRNA, HEK293T); format: cell-based, human; details: relative to ASO #75
Experimental: In an alternative approach for screening the designed ASO candidates, the human cell line HEK293T cells (human) were cultured on 96-well culture plates for 24 hours and then transfected with ASO candidates with the aid of iN-fect™ transfection reagent (INTRON, 15081). Twenty four hours after transfection, the cells were harvested and subjected to lysis and RNA extraction using SuperPrep™ II Cell Lysis & RT Kit reagent (Toyobo, SCQ-401). From the RNA thus obtained, cDNA was synthesized by reverse transcription PCR. Real-time PCR was performed in CXF384 Touch™ Real-Time System (Bio-Rad) with SYBR® green real-time PCR master mix (Toyobo, QPK-201). Forward and reverse PCR primer sequences for eIF4E and GAPDH are as follows:
The real-time PCR conditions in the CXF384_Touch™ Real-Time System were as follows: 95° C. for 1 min, then 95° C. for 15 sec, 59.5° C. for 20 sec, and 72° C. for 30 sec for 39 cycles. Each sample was analyzed in triplicates. […] FIGS. 16b and 16c are graphs in which relative eIF4E expression levels are quantitatively expressed as ratios compared to the GAPDH expression level in HEK293T cells treated with ASO candidates.

[5] = tested on: FMCD and epilepsy animal models (mTOR-p.C1483Y, mTOR-p.L2427P); assay: 3-Chamber test (social interaction), FMCD epilepsy models; format: in vivo, mouse; details: ASO-eIF4E models compared to ASO-control models
Experimental: The 3-Chamber test measures social interaction and preference for social novelty. This apparatus consisted of three chambers with dimensions of 12×20×26 cm for the center chamber and dimensions of 14×20×26 cm for the opposite side chambers. Each of the opposite side chambers included a plastic cage (11 cm in diameter, 2.15 cm in height) for an object or stranger mouse in a corner. This experiment consisted of three sessions of habituation (10 min), exploring object/mouse (10 min), and exploring familiar/new mouse (10 min). In the second session, a WT stranger mouse was randomly placed in a plastic cage while the opposite plastic cage was empty. The mouse was allowed to freely explore the whole apparatus. The time spent in each chamber was measured and then used for the subsequent social interaction test. In the last session, a new WT stranger was placed in the empty plastic cage.
Experiments were performed on the FMCD and epilepsy animal models (mTOR-p.C1483Y, mTOR-p.L2427P) of Example 7-1 and the control normal animal models (mTOR-WT). […]
as §3

Substance: ASO #77: eIF4E-targeting antisense oligonucleotide of SEQ ID NO: 77, 2′-MOE gapmer, all phosphorothioate linkages (antisense GATCCTTCACCAATGTTACA; all phosphorothioate, sugars by position and methylation of C not given here; 2'-MOE gapmer)
- eIF4E expression in animal models (eIF4E): reduce eIF4E expression
- time spent in center (residence time within the light box) [1]: increased
- time spent to interact with the stranger mouse (social ability and depression) [2]: increased
- time spent to interact with the stranger mouse (index of sociality and depression) (C57BL/6J mice [3]): not changed
- dead or moribund animals (male mice): No dead or moribund animals
- time spent in center (residence time within the light box) (C57BL/6J mice [4]): not changed
- Expression level of eIF4E(%) compared to ASO#75 (eIF4E mRNA): 121%
- time spent in sniffing zone (social ability) [5]: increased
